These results are taken from patent US12195450B2, “Small molecule neutral sphingomyelinase 2 (nSMase2) inhibitors” (The Johns Hopkins University, priority 2019, dated 2025).

The target of the assay is T1, nSMase2 (Homo sapiens, UniProt Q9NY59).
T1 sequence (Q9NY59 1-655): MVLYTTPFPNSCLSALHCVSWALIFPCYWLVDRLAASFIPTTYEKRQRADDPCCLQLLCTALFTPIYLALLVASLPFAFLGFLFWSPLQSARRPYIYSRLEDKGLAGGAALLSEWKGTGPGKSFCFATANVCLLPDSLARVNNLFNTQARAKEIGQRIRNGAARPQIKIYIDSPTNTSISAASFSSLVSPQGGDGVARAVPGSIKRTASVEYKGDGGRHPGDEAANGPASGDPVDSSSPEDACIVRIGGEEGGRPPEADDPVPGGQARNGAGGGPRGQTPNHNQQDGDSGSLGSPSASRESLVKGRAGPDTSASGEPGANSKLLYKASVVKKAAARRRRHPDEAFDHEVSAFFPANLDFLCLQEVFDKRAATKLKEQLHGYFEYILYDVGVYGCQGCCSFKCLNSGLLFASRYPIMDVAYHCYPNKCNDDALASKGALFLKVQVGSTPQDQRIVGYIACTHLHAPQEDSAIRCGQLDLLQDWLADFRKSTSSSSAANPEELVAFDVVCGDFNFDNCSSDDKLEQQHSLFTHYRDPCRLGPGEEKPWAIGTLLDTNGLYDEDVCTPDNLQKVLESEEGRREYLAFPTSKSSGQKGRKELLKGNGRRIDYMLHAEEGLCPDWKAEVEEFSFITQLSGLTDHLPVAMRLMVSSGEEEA
As to the kind of experiment: Inhibition of nSMase2 (IC50). The class given is biochemical.

The mark [1] stands for this setting: Table 1, Representative Inhibitors of nSMase2 of Formula (I).

pIC50: −log10 of the molar value. Counter-ions that a name gives are not always drawn.

The pIC50 is −log10 of the IC50, conventionally taken in molar units. A lower pIC50 goes with a high IC50. Turning to `COc1cc(-c2nc(C)c(C)[nH]2)cc(OC)c1O` [Compound 19, 4-(4,5-dimethyl-1H-imidazol-2-yl)-2,6-dimethoxyphenol hydrochloride], the pIC50 reads like this: under setting [1], 6.30; (Table 2, Inhibition of nSMase) 6.30.

Take `COc1cc(-c2nc3c(C)ccc(C)c3[nH]2)cc(OC)c1O` [Compound 44, 4-(4,7-dimethyl-1H-benzo[d]imidazol-2-yl)-2,6-dimethoxyphenol]: the pIC50 by setting is: under setting [1], 6.10; (Table 2, Inhibition of nSMase) 6.10.

As for `COc1cc(-c2nc(-c3cccs3)c(C)[nH]2)cc(OC)c1O` [Compound 41, 2,6-dimethoxy-4-(4-methyl-5-(thiophen-2-yl)-1H-imidazol-2-yl)phenol hydrochloride], the negative logarithm of the IC50 (pIC50) reads like this: under setting [1], 8.00; (Table 2, Inhibition of nSMase) 8.00.

As for `CC(C)Oc1cc(-c2nc(-c3ccccc3)c(-c3cccs3)[nH]2)cc(OC(C)C)c1O` [Compound 22, 2,6-diisopropoxy-4-(4-phenyl-5-(thiophen-2-yl)-1H-imidazol-2-yl)phenol], the pIC50 by setting is: under setting [1], 7.70; (Table 2, Inhibition of nSMase) 7.52.

For the molecule `COc1cc(-c2ncc(-c3ccccc3)[nH]2)cc(OC)c1O` [Compound 23, 2,6-dimethoxy-4-(5-phenyl-1H-imidazol-2-yl)phenol hydrochloride], the pIC50 (Table 2, Inhibition of nSMase) is 7.15.

Take `COc1cc(-c2nc(C)c(-c3ccccc3)[nH]2)cc(OC)c1O` [Compound 35, 2,6-dimethoxy-4-(4-methyl-5-phenyl-1H-imidazol-2-yl)phenol]: under setting [1], the negative logarithm of the IC50 (pIC50) was 7.70.

For `COc1cc(-c2nc3c([nH]2)CCCC3)cc(OC)c1O` [Compound 20, 2,6-dimethoxy-4-(4,5,6,7-tetrahydro-1H-benzo[d]imidazol-2-yl)phenol], the negative-log IC50 (pIC50) by setting is: under setting [1], 6.40; (Table 2, Inhibition of nSMase) 6.40.

On to `COc1cc(-c2ncc(-c3ccc(Br)cc3)[nH]2)cc(OC)c1O` [Compound 26, 4-(5-(4-bromophenyl)-1H-imidazol-2-yl)-2,6-dimethoxyphenol], for which the pIC50 was 6.70 under setting [1] and 6.70 (Table 2, Inhibition of nSMase).

The molecule `CCCCc1[nH]c(-c2cc(OC)c(O)c(OC)c2)nc1C` [Compound 32, 4-(5-butyl-4-methyl-1H-imidazol-2-yl)-2,6-dimethoxyphenol] gave a negative logarithm of the IC50 (pIC50) under setting [1] of 7.22.

For `COc1cc(-c2nc(-c3ccc(C)cc3)c(-c3ccc(C)cc3)[nH]2)cc(OC)c1O` [Compound 38, 4-(4,5-di-p-tolyl-1H-imidazol-2-yl)-2,6-dimethoxyphenol], the pIC50 runs as follows: under setting [1], 7.22; (Table 2, Inhibition of nSMase) 7.22.

With `COc1cc(-c2ncc(C)[nH]2)cc(OC)c1O` [Compound 24, 2,6-dimethoxy-4-(5-methyl-1H-imidazol-2-yl)phenol], the negative-log IC50 (pIC50) is, setting by setting: under setting [1], 6.70; (Table 2, Inhibition of nSMase) 6.70.

Take `COc1cc(C2=NC3CCCCC3N2)cc(OC)c1O` (centres unmarked) [Compound 3546]: the pIC50 under setting [1] was 4.15.

As to `CCc1nc(-c2cc(OC)c(O)c(OC)c2)[nH]c1-c1ccccn1` [Compound 40, 4-(4-ethyl-5-(pyridin-2-yl)-1H-imidazol-2-yl)-2,6-dimethoxyphenol hydrochloride], the pIC50 runs as follows: under setting [1], 6.30; (Table 2, Inhibition of nSMase) 6.30.

Turning to `COc1cc(-c2nc3ccccc3[nH]2)cc(OC)c1O` [Compound 42, 4-(1H-benzo[d]imidazol-2-yl)-2,6-dimethoxyphenol], the pIC50 is 6.22 under setting [1] and 6.22 (Table 2, Inhibition of nSMase).

With `CCCOc1cc(-c2nc(-c3cccs3)c(-c3ccccc3)[nH]2)cc(OCCC)c1O` [Compound 31, 4-(5-phenyl-4-(thiophen-2-yl)-1H-imidazol-2-yl)-2,6-dipropoxyphenol], the pIC50 by setting is: under setting [1], 7.40; (Table 2, Inhibition of nSMase) 7.40.

In the case of `COc1cc(-c2ncc[nH]2)cc(OC)c1O` [Compound 18, 4-(1H-imidazol-2-yl)-2,6-dimethoxyphenol], the negative-log IC50 (pIC50) runs as follows: under setting [1], 6.40; (Table 2, Inhibition of nSMase) 6.40.

As to `COc1cc(-c2nc(-c3cccs3)c(-c3cccs3)[nH]2)cc(OC)c1O` [Compound 27, 4-(4,5-di(thiophen-2-yl)-1H-imidazol-2-yl)-2,6-dimethoxyphenol], the negative logarithm of the IC50 (pIC50) under setting [1] was 7.70.

In turn, `COc1ccc(-c2nc(-c3cc(OC)c(O)c(OC)c3)[nH]c2-c2ccc(OC)cc2)cc1` [Compound 28, 4-(4,5-bis(4-methoxyphenyl)-1H-imidazol-2-yl)-2,6-dimethoxyphenol] showed a negative-log IC50 (pIC50) under setting [1] of 7.70.

On to `CC(C)(C)Oc1cc(-c2nc(-c3ccccc3)c(-c3cccs3)[nH]2)cc(OC(C)(C)C)c1O` [Compound 45, 2,6-di-tert-butoxy-4-(4-phenyl-5-(thiophen-2-yl)-1H-imidazol-2-yl)phenol], for which the negative logarithm of the IC50 (pIC50) reads like this: under setting [1], 6.40; (Table 2, Inhibition of nSMase) 6.40.

For the molecule `CCc1nc(-c2cc(OC)c(O)c(OC)c2)[nH]c1CC` [Compound 33, 4-(4,5-diethyl-1H-imidazol-2-yl)-2,6-dimethoxyphenol], the pIC50 was 7.10 under setting [1] and 7.10 (Table 2, Inhibition of nSMase).

As for `COc1cc(-c2nc(C(C)C)c(C(C)C)[nH]2)cc(OC)c1O` [Compound 47, 4-(4,5-diisopropyl-1H-imidazol-2-yl)-2,6-dimethoxyphenol], the pIC50 under setting [1] was 7.22 and the negative-log IC50 (pIC50) (Table 2, Inhibition of nSMase) is 7.22.

For the molecule `COc1cc(-c2nc(-c3ccccc3)c(C(C)C)[nH]2)cc(OC)c1O` [Compound 48, 4-(5-isopropyl-4-phenyl-1H-imidazol-2-yl)-2,6-dimethoxyphenol], the negative logarithm of the IC50 (pIC50) runs as follows: under setting [1], 7.22; (Table 2, Inhibition of nSMase) 7.22.

Consider `Oc1c(OC2CCCC2)cc(-c2nc(-c3ccccc3)c(-c3cccs3)[nH]2)cc1OC1CCCC1` [Compound 30, 2,6-bis(cyclopentyloxy)-4-(5-phenyl-4-(thiophen-2-yl)-1H-imidazol-2-yl)phenol], for which the pIC50 was 7.00 under setting [1] and 7.00 (Table 2, Inhibition of nSMase).

Turning to `COc1cc(-c2nc3cccnc3[nH]2)cc(OC)c1O` [Compound 43, 4-(3H-imidazo[4,5-b]pyridin-2-yl)-2,6-dimethoxyphenol], the pIC50 is, setting by setting: under setting [1], 5.40; (Table 2, Inhibition of nSMase) 5.40.

As to `COc1cc(-c2nc(-c3ccccc3)c(-c3cccs3)n2C)cc(OC)c1O` [Compound 3455], the pIC50 under setting [1] is 4.22.

Take `COc1cc(-c2nc(-c3ccccc3)c(-c3ccccc3)[nH]2)cc(OC)c1O` [Compound 25, 4-(4,5-diphenyl-1H-imidazol-2-yl)-2,6-dimethoxyphenol]: the negative-log IC50 (pIC50) (Table 2, Inhibition of nSMase) was 7.70.

Turning to `COc1cc(-c2nc(-c3ccc(C)cc3)c[nH]2)cc(OC)c1O` [Compound 29, 2,6-dimethoxy-4-(4-p-tolyl-1H-imidazol-2-yl)phenol], the pIC50 under setting [1] was 7.00 and the negative logarithm of the IC50 (pIC50) (Table 2, Inhibition of nSMase) is 7.00.

In the case of `CCc1nc(-c2cc(OCC(F)(F)F)c(O)c(OCC(F)(F)F)c2)[nH]c1CC` [Compound 37, 4-(4,5-diethyl-1H-imidazol-2-yl)-2,6-bis(2,2,2-trifluoroethoxy)phenol], the negative-log IC50 (pIC50) reads like this: under setting [1], 6.15; (Table 2, Inhibition of nSMase) 6.15.

Turning to `Oc1c(OCC(F)(F)F)cc(-c2nc(-c3ccccc3)c(-c3cccs3)[nH]2)cc1OCC(F)(F)F` [Compound 36, 4-(4-phenyl-5-(thiophen-2-yl)-1H-imidazol-2-yl)-2,6-bis(2,2,2-trifluoroethoxy)phenol], the negative-log IC50 (pIC50) by setting is: under setting [1], 7.22; (Table 2, Inhibition of nSMase) 7.22.

`COc1cc(-c2nc(-c3ccco3)c(-c3ccco3)[nH]2)cc(OC)c1O` [Compound 34, 4-(4,5-di(furan-2-yl)-1H-imidazol-2-yl)-2,6-dimethoxyphenol hydrochloride]: the negative-log IC50 (pIC50) runs as follows: under setting [1], 7.52; (Table 2, Inhibition of nSMase) 7.52.

For the molecule `CCCCc1nc(-c2cc(OC)c(O)c(OC)c2)[nH]c1CCCC` [Compound 46, 4-(4,5-dibutyl-1H-imidazol-2-yl)-2,6-dimethoxyphenol], the pIC50 is 6.70 under setting [1] and 6.70 (Table 2, Inhibition of nSMase).

`COc1cc(-c2ncc(C34CC5CC(CC(C5)C3)C4)[nH]2)cc(OC)c1O` [Compound 39, 2,6-dimethoxy-4-(5-adamantyl-1H-imidazol-2-yl)phenol]: the pIC50 is, setting by setting: under setting [1], 6.70; (Table 2, Inhibition of nSMase) 6.70.
